Here are results for 18 compounds from patent US10954252B1, “Inhibitors of human immunodeficiency virus replication” (ViiV HEALTHCARE UK (NO.5) LIMITED, priority 2017, dated 2021).

The structures appear in SMILES notation.

The test system of data set [1] is recombinant NL4-3 virus (nef section replaced with Renilla luciferase gene) in MT-2 cells. Description: HIV cell culture assay (antiviral activity, luciferase readout). Particulars: MT-2 cells infected for 4-5 days with recombinant NL4-3 luciferase virus. The format is cell-based. An outline of the steps: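 NL4-3 reporter virus carrying Renilla luciferase in place of part of nef, produced in 293T cells, was used to infect MT-2 cells for 4-5 days with serial compound dilutions. Luciferase activity was read with a live-cell substrate; EC50 derived from the median effect equation.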

A short description of data set [2]: Compound cytotoxicity, XTT-based colorimetric assay. The following applies: human, uninfected MT2 cells. It counts as cell-based. The procedure, abridged: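 CC50 from uninfected MT2 cells run under the antiviral-assay protocol without virus. Viability read on day 4 by XTT colorimetric assay.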
Background: Formazan colour is commonly taken as a measure of viable cells.

Regarding `N#Cc1ccc(-c2cc3[nH]ncc3nc2[C@H](Cc2cc(F)cc(F)c2)NC(=O)Cn2nc(C(F)F)c3c2C(F)(F)[C@@H]2C[C@H]32)cc1F` [Example 10.4, N—((S)-1-(6-(4-cyano-3-fluorophenyl)-1H-pyrazolo[4,3-b]pyridin-5-yl)-2-(3,5-difluorophenyl)ethyl)-2-((3bS,4aR)-3-(difluoromethyl)-5,5-difluoro-3b,4,4a,5-tetrahydro-1H-cyclopropa[3,4]cyclopenta[1,2-c]pyrazol-1-yl)acetamide], in data set [1] (Renilla, NL43, Table 1), the EC50 was 1150 nM. For the same compound, in data set [2] (Table 1, day 4, XTT), the CC50 at 4 days was 8240 nM.

Regarding `O=C(Cn1nc(C(F)F)c2c1C(F)(F)[C@@H]1C[C@H]21)N[C@@H](Cc1cc(F)cc(F)c1)c1nc2cn[nH]c2cc1-c1ccc2ccnn2c1` [Example 10.36, 2-((3bS,4aR)-3-(difluoromethyl)-5,5-difluoro-3b,4,4a,5-tetrahydro-1H-cyclopropa[3,4]cyclopenta[1,2-c]pyrazol-1-yl)-N—((S)-2-(3,5-difluorophenyl)-1-(6-(pyrazolo[1,5-a]pyridin-6-yl)-1H-pyrazolo[4,3-b]pyridin-5-yl)ethyl)acetamide], in data set [1] (Renilla, NL43, Table 1), the EC50 was 80 nM. Also, in data set [2] (Table 1, day 4, XTT), the CC50 at 4 days is greater than 10000 nM.

Take `CC(C)c1ccc(-n2c([C@H](Cc3cc(F)cc(F)c3)NC(=O)Cn3nc(C(F)F)c4c3C(F)(F)[C@@H]3C[C@H]43)nc3ncccc3c2=O)cc1` [Example 10.35]: the EC50 in data set [1] (Renilla, NL43, Table 1) was 1.7 nM. In data set [2] (Table 1, day 4, XTT), this compound displayed a CC50 at 4 days of 1900 nM.

Regarding `COc1c(F)cc2c(=O)n(-c3ccc(Cl)c4c(NS(C)(=O)=O)nn(C)c34)c([C@H](Cc3cc(F)cc(F)c3)NC(=O)Cn3nc(C(F)F)c4c3C(F)(F)[C@@H]3C[C@H]43)nc2c1F` (mixture of isomers) [Example 114], the EC50 in data set [1] (Renilla, NL43, Table 1a) worked out at 0.071 nM. Besides, in data set [2] (Table 1a, day 4, XTT), the CC50 at 4 days was greater than 1000 nM.

Consider `Cn1nc(NS(C)(=O)=O)c2c(Cl)ccc(-n3c([C@H](Cc4cc(F)cc(F)c4)NC(=O)Cn4nc(C(F)F)c5c4C(F)(F)[C@@H]4C[C@H]54)nc4cc(C(C)(C)S(C)(=O)=O)ccc4c3=O)c21` (mixture of isomers) [Example 207, N—((S)-1-(3-(4-chloro-1-methyl-3-(methylsulfonamido)-1H-indazol-7-yl)-7-(2-(methylsulfonyl)propan-2-yl)-4-oxo-3,4-dihydroquinazolin-2-yl)-2-(3,5-difluorophenyl)ethyl)-2-((3bS,4aR)-3-(difluoromethyl)-5,5-difluoro-3b,4,4a,5-tetrahydro-1H-cyclopropa[3,4]cyclopenta[1,2-c]pyrazol-1-yl)acetamide], for which the EC50 in data set [1] (Table 1a) was 4.49 nM. In addition, in data set [2] (Table 1a, day 4, XTT), the CC50 at 4 days was greater than 1000 nM.

Consider `CC1(S(=O)(=O)NC(=O)c2cc(-c3cc4[nH]ncc4nc3[C@H](Cc3cc(F)cc(F)c3)NC(=O)Cn3nc(C(F)F)c4c3C(F)(F)[C@@H]3C[C@H]43)ccc2Cl)CC1` [Example 10.20, 2-Chloro-5-(5-((S)-1-(2-((3bS,4aR)-3-(difluoromethyl)-5,5-difluoro-3b,4,4a,5-tetrahydro-1H-cyclopropa[3,4]cyclopenta[1,2-c]pyrazol-1-yl)acetamido)-2-(3,5-difluorophenyl)ethyl)-1H-pyrazolo[4,3-b]pyridin-6-yl)-N-((1-methylcyclopropyl)sulfonyl)benzamide], for which the EC50 in data set [1] (Renilla, NL43, Table 1) worked out at 290 nM. This compound also came in with a CC50 at 4 days in data set [2] (Table 1, day 4, XTT) greater than 10000 nM.

As to `Cn1nc(NS(C)(=O)=O)c2c(Cl)ccc(-n3c([C@H](Cc4cc(F)cc(F)c4)NC(=O)Cn4nc(C(F)F)c5c4C(F)(F)[C@@H]4C[C@H]54)nc4ccc(F)c(Cl)c4c3=O)c21` (mixture of isomers) [Example 159, N—((S)-1-(5-chloro-3-(4-chloro-1-methyl-3-(methylsulfonamido)-1H-indazol-7-yl)-6-fluoro-4-oxo-3,4-dihydroquinazolin-2-yl)-2-(3,5-difluorophenyl)ethyl)-2-((3bS,4aR)-3-(difluoromethyl)-5,5-difluoro-3b,4,4a,5-tetrahydro-1H-cyclopropa[3,4]cyclopenta[1,2-c]pyrazol-1-yl)acetamide], in data set [1] (Renilla, NL43, Table 1a), the EC50 was 9.49 nM. In data set [2] (Table 1a, day 4, XTT), the CC50 at 4 days was greater than 1000 nM.

Turning to `Cn1nc(NS(C)(=O)=O)c2c(Cl)ccc(-c3cc4[nH]cc(Cl)c4nc3C(Cc3cc(F)cc(F)c3)NC(=O)Cn3nc(C(F)F)c4c3C(F)(F)[C@@H]3C[C@H]43)c21` (stereo partly drawn) [Example 88], in data set [1] (Renilla, NL43, Table 1a), the EC50 was 0.61 nM. Further, the CC50 at 4 days in data set [2] (Table 1a, day 4, XTT) was greater than 10000 nM.

As to `Cn1nc(NS(C)(=O)=O)c2c(Cl)ccc(-n3c([C@H](Cc4cc(F)cc(F)c4)NC(=O)Cn4nc(C(F)F)c5c4C(F)(F)[C@@H]4C[C@H]54)nc4cc(Cl)cc(Cl)c4c3=O)c21` (mixture of isomers) [Example 178, N—((S)-1-(5,7-dichloro-3-(4-chloro-1-methyl-3-(methylsulfonamido)-1H-indazol-7-yl)-4-oxo-3,4-dihydroquinazolin-2-yl)-2-(3,5-difluorophenyl)ethyl)-2-((3bS,4aR)-3-(difluoromethyl)-5,5-difluoro-3b,4,4a,5-tetrahydro-1H-cyclopropa[3,4]cyclopenta[1,2-c]pyrazol-1-yl)acetamide], in data set [1] (Renilla, NL43, Table 1a), the EC50 was determined as 18.1 nM. In addition, the CC50 at 4 days in data set [2] (Table 1a, day 4, XTT) is greater than 1000 nM.

In the case of `COc1ccc2c(=O)n(-c3ccc(Cl)c4c(NS(C)(=O)=O)nn(CC(F)F)c34)c([C@H](Cc3cc(F)cc(F)c3)NC(=O)Cn3ccc(C4CC4)n3)nc2n1` (atropisomer, axis not shown) [Example 55.1, N-[(1S)-1-{3-[4-chloro-1-(2,2-difluoroethyl)-3-methanesulfonamido-1H-indazol-7-yl]-7-methoxy-4-oxo-3H,4H-pyrido[2,3-d]pyrimidin-2-yl}-2-(3,5-difluorophenyl)ethyl]-2-(3-cyclopropyl-1H-pyrazol-1-yl)acetamide], in data set [1] (Table 1a), the EC50 stood at 28.5 nM. The same compound came in with a 50% cytotoxic concentration (CC50) at 4 days in data set [2] (Table 1a, day 4, XTT) greater than 1000 nM.

For `Cn1nc(NS(C)(=O)=O)c2c(Cl)ccc(-n3c([C@H](Cc4cc(F)cc(F)c4)NC(=O)Cn4ccc(C5CC5)n4)nc4c(F)ccc(F)c4c3=O)c21` (single isomer, unassigned) [Example 145], the EC50 in data set [1] (Table 1a) came out at 30.2 nM. Also, the CC50 at 4 days in data set [2] (Table 1a, day 4, XTT) was greater than 1000 nM.

Regarding `COc1ccc2c(=O)n(-c3cccc4c(NS(C)(=O)=O)nn(C)c34)c([C@H](Cc3cc(F)cc(F)c3)NC(=O)Cn3nc(C(F)F)c4c3C(F)(F)[C@@H]3C[C@H]43)nc2c1` (single isomer, unassigned) [Example 80], the EC50 in data set [1] (Renilla, NL43, Table 1a) stood at 0.389 nM. In addition, the CC50 at 4 days in data set [2] (Table 1a, day 4, XTT) is greater than 1000 nM.

With `Cn1nc(NS(C)(=O)=O)c2c(Cl)ccc(-n3c([C@H](Cc4cc(F)cc(F)c4)NC(=O)Cc4c[nH]c5ccc(O)cc45)nc4cc(CS(C)(=O)=O)ccc4c3=O)c21` [Example 203, (S)—N-(1-(3-(4-chloro-1-methyl-3-(methylsulfonamido)-1H-indazol-7-yl)-7-((methylsulfonyl)methyl)-4-oxo-3,4-dihydroquinazolin-2-yl)-2-(3,5-difluorophenyl)ethyl)-2-(5-hydroxy-1H-indol-3-yl)acetamide], the EC50 in data set [1] (Table 1a) stood at 166 nM. In addition, in data set [2] (Table 1a, day 4, XTT), the CC50 at 4 days was greater than 1000 nM.

For `O=C(Cn1nc(C(F)F)c2c1C(F)(F)[C@@H]1C[C@H]21)N[C@@H](Cc1cc(F)cc(F)c1)c1nc2cn[nH]c2cc1-c1cccc(C(=O)O)c1` [Example 10.10, 3-(5-((S)-1-(2-((3bS,4aR)-3-(difluoromethyl)-5,5-difluoro-3b,4,4a,5-tetrahydro-1H-cyclopropa[3,4]cyclopenta[1,2-c]pyrazol-1-yl)acetamido)-2-(3,5-difluorophenyl)ethyl)-1H-pyrazolo[4,3-b]pyridin-6-yl)benzoic acid], in data set [1] (Renilla, NL43, Table 1), the EC50 was determined as 140 nM. The compound further came in with a CC50 at 4 days in data set [2] (Table 1, day 4, XTT) greater than 10000 nM.

As for `Cn1nc(NS(C)(=O)=O)c2c(Cl)ccc(-c3cc4scnc4nc3C(Cc3cc(F)cc(F)c3)NC(=O)Cc3c[nH]c4ccc(O)cc34)c21` (stereo not drawn) [Example 1.7, N-(1-(6-(4-chloro-1-methyl-3-(methylsulfonamido)-1H-indazol-7-yl)thiazolo[4,5-b]pyridin-5-yl)-2-(3,5-difluorophenyl)ethyl)-2-(5-hydroxy-1H-indol-3-yl)acetamide], the EC50 in data set [1] (Renilla, NL43, Table 1) was 11 nM. Moreover, in data set [2] (Table 1, day 4, XTT), the CC50 at 4 days was greater than 100000 nM.

`O=C(Cn1nc(C(F)F)c2c1C(F)(F)[C@@H]1C[C@H]21)N[C@@H](Cc1cc(F)cc(F)c1)c1nc2cn[nH]c2cc1-c1ccc(S(=O)(=O)N2CCSCC2)cc1` [Example 27, 2-((3bS,4aR)-3-(difluoromethyl)-5,5-difluoro-3b,4,4a,5-tetrahydro-1H-cyclopropa[3,4]cyclopenta[1,2-c]pyrazol-1-yl)-N—((S)-2-(3,5-difluorophenyl)-1-(6-(4-(thiomorpholinosulfonyl)phenyl)-1H-pyrazolo[4,3-b]pyridin-5-yl)ethyl)acetamide]: in data set [1] (Renilla, NL43, Table 1a), the EC50 amounted to 4.94 nM. In addition, half-maximal cytotoxicity in data set [2] (Table 1a, day 4, XTT) (CC50 at 4 days) was put at 5010 nM.

For the compound `NC(=O)c1cc(-c2cc3[nH]ncc3nc2[C@H](Cc2cc(F)cc(F)c2)NC(=O)Cn2nc(C(F)F)c3c2C(F)(F)[C@@H]2C[C@H]32)ccc1F` [Example 10.6, 5-(5-((S)-1-(2-((3bS,4aR)-3-(difluoromethyl)-5,5-difluoro-3b,4,4a,5-tetrahydro-1H-cyclopropa[3,4]cyclopenta[1,2-c]pyrazol-1-yl)acetamido)-2-(3,5-difluorophenyl)ethyl)-1H-pyrazolo[4,3-b]pyridin-6-yl)-2-fluorobenzamide], the EC50 in data set [1] (Renilla, NL43, Table 1) is 16 nM. For the same compound, the cytotoxic concentration (CC50) at 4 days in data set [2] (Table 1, day 4, XTT) was greater than 10000 nM.

Take `CC(C)c1ccc(-c2c([C@H](Cc3cc(F)cc(F)c3)NC(=O)Cn3nc(C(F)F)c4c3C(F)(F)[C@@H]3C[C@H]43)nc3ncnn3c2N)cn1` [Example 10.32, N—((S)-1-(7-amino-6-(6-isopropylpyridin-3-yl)-[1,2,4]triazolo[1,5-a]pyrimidin-5-yl)-2-(3,5-difluorophenyl)ethyl)-2-((3bS,4aR)-3-(difluoromethyl)-5,5-difluoro-3b,4,4a,5-tetrahydro-1H-cyclopropa[3,4]cyclopenta[1,2-c]pyrazol-1-yl)acetamide]: the EC50 in data set [1] (Renilla, NL43, Table 1) came to 54 nM. This compound showed a CC50 at 4 days in data set [2] (Table 1, day 4, XTT) greater than 10000 nM.

A word on the EC50: it is the concentration that produces a half-maximal response. As usually defined, the CC50 is the concentration that lowers cell viability or growth by half. A low value points to harm at low concentration.
